According to ChEMBL document CHEMBL5584358, “Fungal Coculture of Herpotrichia sp. and Trametes versicolor Induces Production of Diverse Metabolites with Anti-Parkinson's Neuroprotective Activity” (J Nat Prod, 2024):
Activity calls are given as the source filed them.

Assays:
PC-12 [1] = assay: Neuroprotective activity against MPP+-induced rat PC12 cell death assessed as downregulation of Ikbkg gene expression at 1 to 10 uM preincubated for 1 hr followed by MPP+ addition and measured after 24 hrs by RNA sequencing analysis relative to control; type: functional; conditions: dose 1-10 µM; time 25 hrs
PC-12 [2] = assay: Cytotoxicity against rat PC12 cells assessed as effect on cell viability at 20 uM measured after 24 hrs by CCK-8 assay; type: toxicity, cell-based; conditions: pc-12, 24 h
PC-12 [3] = assay: Neuroprotective activity against MPP+-induced rat PC12 cell death assessed as upregulation of Cebpd gene expression at 1 to 10 uM preincubated for 1 hr followed by MPP+ addition and measured after 24 hrs by RNA sequencing analysis relative to control; type: functional; conditions: dose 1-10 µM; time 25 hrs
PC-12 [4] = assay: Neuroprotective activity against MPP+-induced rat PC12 cell death assessed as downregulation of Cflar gene expression at 1 to 10 uM preincubated for 1 hr followed by MPP+ addition and measured after 24 hrs by RNA sequencing analysis relative to control; type: functional; conditions: dose 1-10 µM; time 25 hrs
PC-12 [5] = assay: Neuroprotective activity against MPP+-induced rat PC12 cell death assessed as downregulation of Nr3c2 gene expression at 1 to 10 uM preincubated for 1 hr followed by MPP+ addition and measured after 24 hrs by RNA sequencing analysis relative to control; type: functional; conditions: dose 1-10 µM; time 25 hrs
PC-12 [6] = assay: Neuroprotective activity against MPP+-induced rat PC12 cell death assessed as upregulation of Plau gene expression at 1 to 10 uM preincubated for 1 hr followed by MPP+ addition and measured after 24 hrs by RNA sequencing analysis relative to control; type: functional; conditions: dose 1-10 µM; time 25 hrs
PC-12 [7] = assay: Neuroprotective activity against MPP+-induced rat PC12 cell death assessed as upregulation of Bach2 gene expression at 1 to 10 uM preincubated for 1 hr followed by MPP+ addition and measured after 24 hrs by RNA sequencing analysis relative to control; type: functional; conditions: dose 1-10 µM; time 25 hrs
PC-12 [8] = assay: Neuroprotective activity against MPP+-induced rat PC12 cell death assessed as upregulation of Dars2 gene expression at 1 to 10 uM preincubated for 1 hr followed by MPP+ addition and measured after 24 hrs by RNA sequencing analysis relative to control; type: functional; conditions: dose 1-10 µM; time 25 hrs
PC-12 [9] = assay: Neuroprotective activity against MPP+-induced rat PC12 cell death assessed as downregulation of Xiap gene expression at 1 to 10 uM preincubated for 1 hr followed by MPP+ addition and measured after 24 hrs by RNA sequencing analysis relative to control; type: functional; conditions: dose 1-10 µM; time 25 hrs
PC-12 [10] = assay: Neuroprotective activity against MPP+-induced rat PC12 cell death assessed as upregulation of Prkce gene expression at 1 to 10 uM preincubated for 1 hr followed by MPP+ addition and measured after 24 hrs by RNA sequencing analysis relative to control; type: functional; conditions: dose 1-10 µM; time 25 hrs
PC-12 [11] = assay: Neuroprotective activity against MPP+-induced rat PC12 cell death assessed as upregulation of Ets1 gene expression at 1 to 10 uM preincubated for 1 hr followed by MPP+ addition and measured after 24 hrs by RNA sequencing analysis relative to control; type: functional; conditions: dose 1-10 µM; time 25 hrs
PC-12 [12] = assay: Neuroprotective activity against MPP+-induced rat PC12 cell death assessed as upregulation of Scn4b gene expression at 1 to 10 uM preincubated for 1 hr followed by MPP+ addition and measured after 24 hrs by RNA sequencing analysis relative to control; type: functional; conditions: dose 1-10 µM; time 25 hrs
PC-12 [13] = assay: Neuroprotective activity against MPP+-induced rat PC12 cell death assessed as downregulation of Vnn1 gene expression at 1 to 10 uM preincubated for 1 hr followed by MPP+ addition and measured after 24 hrs by RNA sequencing analysis relative to control; type: functional; conditions: dose 1-10 µM; time 25 hrs
PC-12 [14] = assay: Neuroprotective activity against MPP+-induced rat PC12 cell death assessed as upregulation of Lck gene expression at 1 to 10 uM preincubated for 1 hr followed by MPP+ addition and measured after 24 hrs by RNA sequencing analysis relative to control; type: functional; conditions: dose 1-10 µM; time 25 hrs
PC-12 [15] = assay: Neuroprotective activity against MPP+-induced rat PC12 cell death assessed as upregulation of Gpt gene expression at 1 to 10 uM preincubated for 1 hr followed by MPP+ addition and measured after 24 hrs by RNA sequencing analysis relative to control; type: functional; conditions: dose 1-10 µM; time 25 hrs
PC-12 [16] = assay: Neuroprotective activity against MPP+-induced rat PC12 cell death assessed as downregulation of Bdnf gene expression at 1 to 10 uM preincubated for 1 hr followed by MPP+ addition and measured after 24 hrs by RNA sequencing analysis relative to control; type: functional; conditions: dose 1-10 µM; time 25 hrs
PC-12 [17] = assay: Neuroprotective activity against MPP+-induced rat PC12 cell death assessed as downregulation of Ugt1a3 gene expression at 1 to 10 uM preincubated for 1 hr followed by MPP+ addition and measured after 24 hrs by RNA sequencing analysis relative to control; type: functional; conditions: dose 1-10 µM; time 25 hrs
PC-12 [18] = assay: Neuroprotective activity against MPP+-induced rat PC12 cell death assessed as downregulation of Tnfaip8L2 gene expression at 1 to 10 uM preincubated for 1 hr followed by MPP+ addition and measured after 24 hrs by RNA sequencing analysis relative to control; type: functional; conditions: dose 1-10 µM; time 25 hrs
PC-12 [19] = assay: Neuroprotective activity against MPP+-induced rat PC12 cell death assessed as upregulation of Des gene expression at 1 to 10 uM preincubated for 1 hr followed by MPP+ addition and measured after 24 hrs by RNA sequencing analysis relative to control; type: functional; conditions: dose 1-10 µM; time 25 hrs
PC-12 [20] = assay: Neuroprotective activity against MPP+-induced rat PC12 cell death assessed as upregulation of Cryab gene expression at 1 to 10 uM preincubated for 1 hr followed by MPP+ addition and measured after 24 hrs by RNA sequencing analysis relative to control; type: functional; conditions: dose 1-10 µM; time 25 hrs
PC-12 [21] = assay: Neuroprotective activity against MPP+-induced rat PC12 cell death assessed as increase in cell viability at […] preincubated for 1 hr followed by MPP+ addition and measured after 24 hrs by CCK-8 assay; type: functional, cell-based; conditions: time 25.0 hrs
PC-12 [22] = assay: Neuroprotective activity against MPP+-induced rat PC12 cell death assessed as downregulation of Anxa1 gene expression at 1 to 10 uM preincubated for 1 hr followed by MPP+ addition and measured after 24 hrs by RNA sequencing analysis relative to control; type: functional; conditions: dose 1-10 µM; time 25 hrs
PC-12 [23] = assay: Neuroprotective activity against MPP+-induced rat PC12 cell death assessed as upregulation of Faslg gene expression at 1 to 10 uM preincubated for 1 hr followed by MPP+ addition and measured after 24 hrs by RNA sequencing analysis relative to control; type: functional; conditions: dose 1-10 µM; time 25 hrs
PC-12 [24] = assay: Neuroprotective activity against MPP+-induced rat PC12 cell death assessed as upregulation of Cdh1 gene expression at 1 to 10 uM preincubated for 1 hr followed by MPP+ addition and measured after 24 hrs by RNA sequencing analysis relative to control; type: functional; conditions: dose 1-10 µM; time 25 hrs
PC-12 [25] = assay: Neuroprotective activity against MPP+-induced rat PC12 cell death assessed as increase in cell viability preincubated for 1 hr followed by MPP+ addition and measured after 24 hrs by CCK-8 assay; type: functional, cell-based; conditions: dose 1-20 µM, time 25.0 hrs
PC-12 [26] = assay: Neuroprotective activity against MPP+-induced rat PC12 cell death assessed as downregulation of Cdk6 gene expression at 1 to 10 uM preincubated for 1 hr followed by MPP+ addition and measured after 24 hrs by RNA sequencing analysis relative to control; type: functional; conditions: dose 1-10 µM; time 25 hrs

C=C1CC[C@H]2C(C)(C)[C@@H](O)C[C@@H](O)[C@]2(C)[C@H]1CO
active: Activity (PC-12 [21]) | Activity (PC-12 [25]) Dose-Dependent Effect
>0.4: log2FC (PC-12 [1]) | log2FC (PC-12 [3]) | log2FC (PC-12 [4]) | log2FC (PC-12 [5]) | log2FC (PC-12 [6]) | log2FC (PC-12 [7]) | log2FC (PC-12 [8]) | log2FC (PC-12 [9]) | log2FC (PC-12 [10]) | log2FC (PC-12 [11]) | log2FC (PC-12 [12]) | log2FC (PC-12 [13]) | log2FC (PC-12 [14]) | log2FC (PC-12 [15]) | log2FC (PC-12 [16]) | log2FC (PC-12 [17]) | log2FC (PC-12 [18]) | log2FC (PC-12 [19]) | log2FC (PC-12 [20]) | log2FC (PC-12 [22]) | log2FC (PC-12 [23]) | log2FC (PC-12 [24]) | log2FC (PC-12 [26])
Non-Toxic: Activity (PC-12 [2])
